Experimental data: US20260240958A1, “REPRESSOR FUSION PROTEIN SYSTEMS” (Scribe Therapeutics Inc., priority 2023, published 2026)

Tests used:
B2M gene = assay: B2M reactivation by DNMT1 inhibitor 5-azadC in transfected HEK293T cells cultured for 58 days; type: cell-based, human; details: HEK293T transfected with construct + B2M-targeting gRNA; 0 to 20 μM 5-azadC
Description: LTRP configuration 5 containing the ZIM3-KRAB domain, which was generated as described in Example 1, and CasX variant 491 were used in this experiment. A B2M-targeting gRNA with scaffold 174 containing spacer 7.37 (SEQ ID NO: 1904) or a non-targeting gRNA containing spacer 0.0 (SEQ ID NO: 1906) were used in this experiment.

human PCSK9 locus [1] = assay: Secreted PCSK9 dose response (IC50, IC90, Emax) in primary human hepatocytes treated with LNPs; type: cell-based; details: day 5
Experimental: PCSK9 knockdown in primary human hepatocytes, provided an experimental basis for lipofection of gRNA comprising one of the four top editing targeting sequences (Table 59) into PHH cells for assessment of PCSK9 secretion and mRNA reduction. Dose response curves were generated from two lots of PHH cells with three rounds of triplicate wells for each condition. The highest tested dose, 2400 ng/well total encapsulated RNA, was used to measure mRNA expression changes between treated and naïve cells via RNA-seq.
Two lots (lot #271 and lot #31) of primary human hepatocytes (Lonza Biologics) were plated at density of 65K cells/well. Twenty-four hours later, plates were stamped with the indicated total encapsulated RNA dose of single formulations ALC-0315 LNP (1:1 ratio, pre-incubated with human serum overnight) at the indicated dose in triplicate wells for each condition. Doses tested for each mRNA:gRNA pair (Table 60) were 2400, 800, 270, 90, 30, 10, 0.1, and 0.01 ng/well total encapsulated RNA. […]
Secreted PCSK9 levels in the media supernatant were analyzed using the BioLegend® ELISA MAX™ kit following the manufacturer's instructions.
(§1) The ability of pairs of mRNA:gRNA comprising scaffold 316 and an PCSK9-targeting sequence to reduce secretion of PCSK9 and PCSK9 mRNA reduction was assessed. […]

PCSK9 mRNA = PCSK9 mRNA RT-qPCR dose response (IC50, IC90, Emax) in primary human hepatocytes treated with LNPs; type: cell-based; details: day 5
Experimental: Two lots (lot #271 and lot #31) of primary human hepatocytes (Lonza Biologics) were plated at density of 65K cells/well. Twenty-four hours later, plates were stamped with the indicated total encapsulated RNA dose of single formulations ALC-0315 LNP (1:1 ratio, pre-incubated with human serum overnight) at the indicated dose in triplicate wells for each condition. Doses tested for each mRNA:gRNA pair (Table 60) were 2400, 800, 270, 90, 30, 10, 0.1, and 0.01 ng/well total encapsulated RNA.
For rounds 1 and 2, cells were immediately lysed in 100 uL DNA RNA shield™ and stored at […] after the day 5 media collection.
Extracted mRNA was processed and analyzed by RT-qPCR. Measurement ofPCSK9 mRNA expression is performed using a single-step RT-qPCR approach. 50 uL lysate was used to extract total RNA using Zymo 96 RNA extraction kits. Total RNA was then reverse transcribed into cDNA and PCSK9 transcript quantified in reference to a GAPDH endogenous control by quantitative PCR using TaqMan probes. Percent change in mRNA was calculated by comparing to samples treated with a non-targeting sequence.
as §1

mouse PCSK9 locus = assay: Intracellular PCSK9 staining by flow cytometry in Hepa1-6 cells lipofected with mRNA and PCSK9-targeting gRNA; type: cell-based
Experimental: Transfection of mRNA and gRNA into Hepa1-6 cells and intracellular PCSK9 staining were performed as described in Example 6. Briefly, each well of seeded Hepa1-6 cells was transfected with 300 ng of mRNA encoding LTRP5-ZIM3 or LTRP5-ADD-ZIM3 and 150 ng of PCSK9-targeting gRNA with spacer 27.88 or 27.94. Intracellular levels of PCSK9 protein were measured at various timepoints, up to day 53 post-transfection using an intracellular staining protocol as described earlier in Example 6. A non-targeting gRNA was used as an experimental control.
Seeded Hepa1-6 cells treated with the NATE™ inhibitor were lipofected with 300 ng of mRNA encoding dXR1 or LTRP1-ZIM3 (Table 36) and 150 ng of a PCSK9-targeting gRNA (Table 37). Seven different gRNAs with spacers spanning the promoter region of the mouse PCSK9 locus were tested, in addition to a sequence complementary to the human PCSK9 gene that served as the non-targeting control (Table 37). Cells were harvested at 6, 13, and 25 days after transfection to measure intracellular levels of the PCSK9 protein using an intracellular flow cytometry staining protocol. Briefly, cells were fixed using 4% paraformaldehyde in PBS, permeabilized, and stained using a mouse anti-PCSK9 primary antibody (R&D Systems), followed by a fluorescent goat anti-mouse IgG secondary antibody (Thermo Fisher). Fluorescence levels were measured using the Attune™ NxT flow cytometer, and data were analyzed using the FlowJo™ software. Cell populations were gated using the non-targeting gRNA as a negative control.
Seeded Hepa1-6 cells treated with the NATE™ inhibitor were lipofected with 300 ng of mRNA encoding LTRP1-ZIM3, LTRP5-ZIM3, catalytically-active CasX 491, or dCas9-ZNF10-DNMT3A/3L, and 150 ng of PCSK9-targeting gRNA (Table 37). Intracellular levels of PCSK9 protein were measured at day 7, 14, 21, 36, and 71 days post-transfection using an intracellular staining protocol as described for experiment #1.

human PCSK9 locus [2] = assay: Secreted PCSK9 ELISA in Huh7 cells transfected with mRNA and gRNA; type: cell-based; details: for normalized secreted PCSK9 level: days 6, 18, 36
Experimental: The following three human hepatocyte cancer cell lines were used in this experiment: HepG2 cells, Hep3B cells, and Huh7 cells. ~15,000 cells of each cell line were seeded in each well of a 96-well plate. The next day, seeded cells were transfected with mRNA encoding a catalytically-active CasX 676, dXR1, or LTRP5-ADD-ZIM3 and a gRNA with scaffold 316 and spacer targeting either the B2M or PCSK9 locus (see Table 12 for specific spacers and sequences). Media supernatant was harvested at 4 days post-transfection to assess level of PCSK9 secretion by ELISA, and levels of PCSK9 secretion were normalized to total cell count, as illustrated in FIGS. 2A-2C. Culturing of treated Huh7 cells continued, and media supernatant was harvested at 14 and 27 days post-transfection for measuring PCSK9 secretion by ELISA. As an additional experimental control, PCSK9 secretion was also measured in the media supernatant harvested from wells containing untreated, naïve cells.
To assess PCSK9 secretion, seeded Huh7 cells were transfected with mRNA encoding a catalytically-active CasX 676, dXR1, or LTRP5-ADD-ZIM3 and a gRNA with scaffold 316 and a spacer targeting either the B2M or PCSK9 locus. Media supernatant was harvested at 6, 18, and 36 days post-transfection to assess level of PCSK9 secretion by ELISA. Levels of PCSK9 secretion were normalized to total cell count. As an additional control, PCSK9 secretion was also measured in the media supernatant harvested from wells containing untreated, naïve cells.

Nc1ncn([C@H]2C[C@H](O)[C@@H](CO)O2)c(=O)n1 [5-azadC, 5-aza-2′-deoxycytidine]
reactivation of the B2M gene upon 5-azadC treatment (B2M gene): resulted in a reactivation of the B2Mgene

TG-06-154: NHP-conserved TSS-proximal TTC spacer targeting the human PCSK9 locus (Table 40) (guide AGGGUGUGGGUGCUUGACGC; spacer within gRNA, v1 profile: 2'-OMe and phosphorothioate on first and last three gRNA nucleotides, further chemistry not given here)
potency in reducing secreted PCSK9 protein (human PCSK9 locus [1]): the most potent LTRP spacer
potency in reducing PCSK9 mRNA levels (PCSK9 mRNA): the most potent LTRP spacer

dXR1: dCasX fused to ZIM3-KRAB; protein SEQ ID NO 2008
degree of PCSK9 repression compared with LTRP1-ZIM3 (mouse PCSK9 locus; day 6, e.g. spacers 27.92 and 27.100): the degree of repression was less substantial when paired with certain spacers
persistence of PCSK9 repression (mouse PCSK9 locus; days 6, 13, 25): transient repression
repression of PCSK9 secretion relative to naïve control at day 4 (human PCSK9 locus [2]; Huh7, spacer 6.138, days 4, 14, 27): initial strong repression at day 4, this repressive effect was transient
normalized secreted PCSK9 level (human PCSK9 locus [2]; Huh7, spacer 6.138): transient repression
knockdown of PCSK9 secretion (normalized to total cell count) (human PCSK9 locus [2]; Huh7 compared with HepG2 and Hep3B cells, 4 days post-transfection): most efficient knockdown of PCSK9 secretion

TG-06-352: spacer targeting human PCSK9, positioned beyond the 1100 bp threshold window (guide UCCCUCACCAAUUACCCCUC; spacer within gRNA, v1 profile: 2'-OMe and phosphorothioate on first and last three gRNA nucleotides, further chemistry not given here)
normalized secreted PCSK9 level (human PCSK9 locus [2]; Huh7, spacer paired with LTRP5-ADD-ZIM3, compared with spacer 6.1 paired with CasX 676 and controls): effective repression

spacer 27.94: gRNA spacer targeting the mouse PCSK9 locus, SEQ ID NO 2014 (guide CCCCUCUUAAUCCCCACUCC; listed as RNA, chemistry not given here)
durability of PCSK9 repression (mouse PCSK9 locus; paired with LTRP5-ZIM3 or LTRP5-ADD-ZIM3 mRNA, day 53): more durable repression than use of spacer 27.88
